Results from the NIST ThermoML archive (doi:10.1016/j.jct.2013.11.027).
“And” between values parts separate entries of the source, which are not always exact repeats. Identical values can stand only once. Numbers after ± are expanded uncertainties.

Legend:
[1] = 101.33 kPa, Liquid; for speed of sound: Sing-around technique in a fixed-path interferometer; for mass density: Vibrating tube method
[2] = refractive index (Na D-line) (dimensionless); details: 101.33 kPa, Liquid, Standard Abbe refractometry
[3] = xn = mol fraction of the nth substance listed; details: 101 kPa, Liquid, x2 = 0; for speed of sound: Sing-around technique in a fixed-path interferometer; for mass density: Vibrating tube method
[4] = refractive index (Na D-line) (dimensionless); xn = mol fraction of the nth substance listed; details: 101 kPa, Liquid, Standard Abbe refractometry, x2 = 0

CCCCCCn1cc[n+](C)c1.F[B-](F)(F)F [1-hexyl-3-methylimidazolium tetrafluoroborate]
Details | mass density, [1] [kg/m3] | refractive index, [2] | speed of sound, [1] [m/s]
293.15 K | 1148.76 ± 1.1 | 1.43308 ± 0.00053 | 1509.3 ± 2.3
298.15 K | 1145.11 ± 1.1 | 1.43167 ± 0.00053 | 1496.7 ± 2.3
303.15 K | 1141.47 ± 1.1 | 1.43029 ± 0.00053 | 1484.3 ± 2.3
308.15 K | 1137.71 ± 1.1 | 1.4289 ± 0.00053 | 1472 ± 2.3
313.15 K | 1134.09 ± 1.1 | 1.42752 ± 0.00053 | 1459.8 ± 2.3
318.15 K | 1130.49 ± 1.1 | 1.42612 ± 0.00053 | 1447.7 ± 2.3
323.15 K | 1126.89 ± 1.1 | 1.42474 ± 0.00053 | 1435.7 ± 2.3

C1CCOC1 [tetrahydrofuran]
Details | mass density, [1] | refractive index, [2] | speed of sound, [1] [m/s]
293.15 K | 888.69 ± 0.17 kg/m3 | 1.40696 ± 0.00039 | 1304.6 ± 1.4
298.15 K | 882.21 ± 0.17 kg/m3 and 882.209 ± 0.17 kg/m3 | 1.4042 ± 0.00039 | 1280.5 ± 1.4
303.15 K | 877.7 ± 0.17 kg/m3 | 1.40157 ± 0.00039 | 1256.4 ± 1.4
308.15 K | 872.16 ± 0.17 kg/m3 and 871.159 ± 0.17 kg/m3 | 1.39885 ± 0.00039 | 1232.5 ± 1.4
313.15 K | 866.58 ± 0.18 kg/m3 | 1.39623 ± 0.00039 | 1208.8 ± 1.4
318.15 K | 860.96 ± 0.18 kg/m3 and 859.955 ± 0.18 kg/m3 | 1.39349 ± 0.00039 | 1185.2 ± 1.4
323.15 K | 855.29 ± 0.18 kg/m3 | 1.39083 ± 0.00039 | 1161.7 ± 1.3

C1CCOC1 [tetrahydrofuran] + CCCCCCCC[n+]1ccn(C)c1.F[B-](F)(F)F
Details | mass density, 298.15 K [kg/m3] | mass density, 308.15 K [kg/m3] | mass density, 318.15 K [kg/m3] | refractive index, 298.15 K | refractive index, 308.15 K | refractive index, 318.15 K | speed of sound, 298.15 K [m/s] | speed of sound, 308.15 K [m/s] | speed of sound, 318.15 K [m/s]
[3] | 882.209 ± 0.17 | 871.159 ± 0.17 | 859.955 ± 0.18 | – | – | – | 1280.5 ± 1.4 | 1232.5 ± 1.4 | 1185.2 ± 1.4
[4] | – | – | – | 1.4042 ± 0.00039 | 1.39885 ± 0.00039 | 1.39349 ± 0.00039 | – | – | –

C1COCCO1 [1,4-dioxane] + CCCCCCCC[n+]1ccn(C)c1.F[B-](F)(F)F
Details | mass density, 298.15 K [kg/m3] | mass density, 308.15 K [kg/m3] | mass density, 318.15 K [kg/m3] | refractive index, 298.15 K | refractive index, 308.15 K | refractive index, 318.15 K | speed of sound, 298.15 K [m/s] | speed of sound, 308.15 K [m/s] | speed of sound, 318.15 K [m/s]
[3] | 1027.85 ± 0.12 | 1016.52 ± 0.12 | 1005.12 ± 0.12 | – | – | – | 1345 ± 1.2 | 1301.1 ± 1.2 | 1257.8 ± 1.2
[4] | – | – | – | 1.41967 ± 0.00037 | 1.4148 ± 0.00037 | 1.40993 ± 0.00037 | – | – | –

CCCCCCCC[n+]1ccn(C)c1.F[B-](F)(F)F [1-methyl-3-octylimidazolium tetrafluoroborate]
Details | mass density, [1] [kg/m3] | refractive index, [2] | speed of sound, [1] [m/s]
293.15 K | 1100.59 ± 1.1 | 1.43389 ± 0.0017 | 1495.5 ± 2.3
298.15 K | 1097.61 ± 1 | 1.43296 ± 0.0017 | 1481.1 ± 2.3
303.15 K | 1094.07 ± 1 | 1.43192 ± 0.0017 | 1467.3 ± 2.3
308.15 K | 1090.9 ± 1 | 1.42939 ± 0.0017 | 1453.9 ± 2.3
313.15 K | 1087.41 ± 1 | 1.42772 ± 0.0017 | 1440.9 ± 2.3
318.15 K | 1084.17 ± 1 | 1.42684 ± 0.0017 | 1428.2 ± 2.3
323.15 K | 1080.75 ± 1 | 1.42696 ± 0.0017 | 1414.7 ± 2.3

C1CCOC1 [tetrahydrofuran] + CCCCCCn1cc[n+](C)c1.F[B-](F)(F)F
Details | mass density, 298.15 K [kg/m3] | mass density, 308.15 K [kg/m3] | mass density, 318.15 K [kg/m3] | refractive index, 298.15 K | refractive index, 308.15 K | refractive index, 318.15 K | speed of sound, 298.15 K [m/s] | speed of sound, 308.15 K [m/s] | speed of sound, 318.15 K [m/s]
[3] | 882.209 ± 0.17 | 871.159 ± 0.17 | 859.955 ± 0.18 | – | – | – | 1280.5 ± 1.4 | 1232.5 ± 1.4 | 1185.2 ± 1.4
[4] | – | – | – | 1.4042 ± 0.00039 | 1.39885 ± 0.00039 | 1.39349 ± 0.00039 | – | – | –

C1COCCO1 [1,4-dioxane]
Details | mass density, [1] [kg/m3] | refractive index, [2] | speed of sound, [1] [m/s]
293.15 K | 1033.5 ± 0.12 | 1.42215 ± 0.00037 | 1367.2 ± 1.2
298.15 K | 1027.85 ± 0.12 | 1.41967 ± 0.00037 | 1345 ± 1.2
303.15 K | 1022.19 ± 0.12 | 1.41725 ± 0.00037 | 1323 ± 1.2
308.15 K | 1016.52 ± 0.12 | 1.4148 ± 0.00037 | 1301.1 ± 1.2
313.15 K | 1010.83 ± 0.12 | 1.41236 ± 0.00037 | 1279.4 ± 1.2
318.15 K | 1005.12 ± 0.12 | 1.40993 ± 0.00037 | 1257.8 ± 1.2
323.15 K | 999.4 ± 0.12 | 1.40749 ± 0.00037 | 1236.3 ± 1.2

C1COCCO1 [1,4-dioxane] + CCCCCCn1cc[n+](C)c1.F[B-](F)(F)F
Details | mass density, 298.15 K [kg/m3] | mass density, 308.15 K [kg/m3] | mass density, 318.15 K [kg/m3] | refractive index, 298.15 K | refractive index, 308.15 K | refractive index, 318.15 K | speed of sound, 298.15 K [m/s] | speed of sound, 308.15 K [m/s] | speed of sound, 318.15 K [m/s]
[3] | 1027.85 ± 0.12 | 1016.52 ± 0.12 | 1005.12 ± 0.12 | – | – | – | 1345 ± 1.2 | 1301.1 ± 1.2 | 1257.8 ± 1.2
[4] | – | – | – | 1.41967 ± 0.00037 | 1.4148 ± 0.00037 | 1.40993 ± 0.00037 | – | – | –
